# Results as given in patent publication US5840485A, “Topologically segregated, encoded solid phase libraries” (priority 1994, dated 1998).
# Entries after “also recorded” stand apart in the source; their conditions may differ. Where two headings read alike, the source gives them in different places.
# What was measured:
# chymotrypsin = test: Chymotrypsin cleavage of bead-bound substrates; assay type: biochemical; conditions: for cleavage by chymotrypsin (substrate quality) / decrease in the total amount of peptide on bead after chymotrypsin: bead-bound peptide
# Method: (§1) Beads were carefully washed and transferred to 0.1M ammonium carbonate buffer of pH 7.7. Chymotrypsin (1 mg) was added and suspension was shaken at 37° C. for 20 hours. The same treatment was repeated twice for 4 hours.
# Resin was washed and transferred to the 0.1M ammonium carbonate buffer pH 7.7. Chymotrypsin treatment was performed in the same way as described above.
# A simple substrate for chymotrypsin, Boc-Phe, was synthesized on all available amino groups of the solid carrier.
# streptavidin [1] = biological target: T1, streptavidin (Streptomyces avidinii, UniProt P22629); test: Screening of encoded peptide library XXXX-Lys(XXXX)-Lys(ZZ) on beads; assay type: binding; conditions: Table 3, two cycles of Edman degradation
# T1 sequence (P22629 25-183): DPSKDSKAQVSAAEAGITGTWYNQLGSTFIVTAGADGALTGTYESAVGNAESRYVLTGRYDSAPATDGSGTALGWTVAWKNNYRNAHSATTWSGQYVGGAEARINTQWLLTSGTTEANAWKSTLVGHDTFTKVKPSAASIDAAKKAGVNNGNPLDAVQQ
# Method: The peptide library was screened according to published procedures (Lam and Lebl, 1992, Immunomethods 1: 11-15). The peptide beads were first mixed with double-distilled water to remove the DMF. After extensive washing with PBS (137 mM NaCl, 2.7 mM KCl, 4.3 mM Na2 HPO4, 1.4 mM KH2 PO4, pH 7.2), the beads were coated with 0.05% gelatin (w/v) to block any nonspecific binding. The beads were then incubated with a 1:100,000 dilution of streptavidin-alkaline phosphatase at 2 mg/ml (Pierce; Rockford, Ill.) in 2× PBS/Tween/gelatin (2× PBS, 0.1% Tween-20 (v/v), and 0.05% gelatin (w/v)). The beads were then thoroughly washed with TBS (137 mM NaCl, 2.7 mM KCl, 25 mM Tris base, pH 7.4) and the standard substrate 5-bromo-4-chloro-3-indolyl phosphate was added. The beads, together with the substrate, were then transferred to petri dishes for color development. After 30 minutes to 1 hour, the colored beads were collected, with the aid of a micropipette, washed with 6M guanidine hydrochloride, pH 1.0, and subjected to sequencing as described.
# This library was used in the screening against two model targets, anti-β-endorphin monoclonal antibody, and streptavidin. […]
# streptavidin [2] = biological target: T1, streptavidin; conditions: for activity with streptavidin after chymotrypsin: in words
# Method: as §1
# (§2) Beads were carefully washed and prepared for staining with anti-β-endorphin as described previously.
# (§3) Treated beads were tested for binding to anti-β-endorphin and streptavidin.
# [3] = system: anti-β-endorphin antibody; test: Antibody detection of model test compounds on non-sequentially coded beads; assay type: binding; conditions: test compound on bead surface, coding molecule inside
# Text: The test compound sequences prepared were Tyr-Gly-Ala-Phe SEQ ID NO:12 and Phe-Gly-Ala-Phe SEQ ID NO:13, coded by doublets of amino acids (see Scheme XIC), and Tyr-Gly-Gly-Phe-Leu SEQ ID NO:14 and Phe(Cl)-Gly-Gly-Phe-Leu SEQ ID NO:15 (encoded by coding by Scheme XIB). […] Moreover, the fidelity and coding could be confirmed by directly sequencing the test peptides.
# Therefore, the synthesis was not performed in successive steps of coupling test AA subunit followed by a pair of coding subunits, but rather using the more convenient scheme described below. […] The mixture of amino acids coding for phenylalanine in position four of the test compound structure (Boc-Sar and Boc-Asp(OBzl) in a molar ratio of 1:1 (reflecting their relatively equivalent coupling reactivity which had previously been determined experimentally) was coupled using DIC and HOBT (3 eq each). The reaction was monitored by bromophenol blue method. The resin was washed by DMF (5×) and the Dde group was deprotected by 2% hydrazine hydrate in DMF (10 min). The resin was washed by DMF (5×), 2% HOBT in DMF, and Fmoc-Lys(Dde) was coupled, and Fmoc group removed. The procedure of coupling mixtures of Boc amino acids and Fmoc-Lys(Dde) was repeated two times (coupling the coding subunit mixtures of Ile and Val (2:1) and Lys(ClZ) and Glu(OBzl) (1.5:1)) and after deprotection of the Dde group, Boc-Lys(Fmoc) was coupled to the resin in both syringes. […]
# [4] = system: anti-β-endorphin monoclonal antibody (clone 3-E 7); test: Screening of encoded peptide library XXXX-Lys(XXXX)-Lys(ZZ) on beads; assay type: binding; conditions: Table 3, two cycles of Edman degradation
# Method: After thorough washing, streptavidin-alkaline phosphatase was added. One hour later, the beads were washed, substrate was added, and color development proceeded as described above. The color beads were then physically isolated and subjected to sequencing. In these two experiments, only the darkest beads were sequenced.
# [5] = system: anti-β-endorphin antibody; test: Binding to peptide beads (staining) with or without chymotrypsin treatment / surface synthesis
# Method: as §1, §2, §3
# anti-β-endorphin = test: Semi-quantitative staining of peptide-beads blocked with polyglutamic acid, biotinyl-anti-β-endorphin followed by streptavidin-AP; assay type: binding
# Method: TentaGel amide AM resin (0.3 meq/gram substitution) was hydrated in H2 O for several hours, and washed with 0.1M 2-[N-morpholino]ethanesulfonic acid (MES) buffer, pH 5.7. A varying amount (0 to 10 mg) of polyglutamic acid (Mr 30,000, Sigma Chemical) was added to each of the 0.2 ml of settled bead. Sixty mg of 1-ethyl-3-(3-dimethylamino-propyl) carbodiimide-HCl (EDC) was then added to each tube. The reaction mixtures were rocked gently overnight. The beads were then washed into double distilled (dd) H2 O and 0.24 mmol ethanolamine plus 60 mg EDC in MES buffer were added to each sample. After 4 hours of gentle shaking, the resin was washed extensively with dd H2 O. The resin was then lyophilized to dryness. The treated resin was swollen in dimethylformamide (DMF). Using Fmoc chemistry, the peptide, […] SEQ ID NO:11 was synthesized on each of the treated resin samples using standard techniques. The N-terminal Fmoc group and the side chain protected groups were removed with piperidine and trifluoracetic acid as described (Lam et al., 1991, Nature 354: 82-84).
# [6] = two-peptide beads, surface deprotected by chymotrypsin
compound,measurement,setting,value
CC(C)(C)OC(=O)N[C@@H](Cc1ccccc1)C(=O)O [Boc-Phe],release of Boc-Phe by chymotrypsin,"chymotrypsin; Boc-Phe on all available amino groups of carrier, various conditions",~1.1%
HPQF: test peptide sequence deduced from positive beads of the encoded library,"Target of positive bead, deduced sequence",streptavidin [1],streptavidin positive
LHFQF: LHFQF SEQ ID NO:10 was a poor substrate for chymotrypsin,cleavage by chymotrypsin (substrate quality),chymotrypsin,poor substrate
LHPQF,reaction with streptavidin of beads with YGGFL on surface and LHPQF inside,streptavidin [2]; [6],positive reaction; also recorded: still available for interaction with streptavidin
LHPQFYG,cleavage by chymotrypsin (substrate quality),chymotrypsin,proceeded efficiently
same,decrease in the total amount of peptide on bead after chymotrypsin,chymotrypsin,minimal
same,activity with streptavidin after chymotrypsin,streptavidin [2],completely abrogated
same,activity with streptavidin after chymotrypsin,streptavidin [2]; listed as LHPQF-YG,completely lost activity
Phe-Gly-Ala-Phe (FGAF),detection by anti-β-endorphin antibody,[3],negative control
Tyr-Gly-Ala-Phe (YGAF),detection by anti-β-endorphin antibody,[3],positive
same,detection by anti-β-endorphin antibody,[3]; listed as Tyr-Gly-Ala-Phe,can be detected
YGGF: test peptide sequence deduced from positive beads of the encoded library,"Target of positive bead, deduced sequence",[4],anti-β-endorphin
YGGFL,binding activity to anti-β-endorphin antibody after chymotrypsin,"[5]; after chymotrypsin, in words",completely lost binding activity
same,staining / reaction with anti-β-endorphin of beads with YGGFL on surface and second peptide inside,[5]; [6],indistinguishable from staining of the beads containing only YGGFL sequence; also recorded: positive reaction; also recorded: available on the surface of the bead for the interaction with the relevant acceptor
same,decrease in the total amount of peptide on bead after chymotrypsin,chymotrypsin,minimal
YGGFLGGG [peptide synthesized on polyglutamic acid treated resin],staining of polyglutamic acid-blocked resin,"anti-β-endorphin; blocked resin, in words",stained only weakly
same,Labeling with biotinyl-anti-β-endorphin followed by streptavidin-AP,anti-β-endorphin; polyglutamic acid 10 mg per 0.2 ml resin,trace
YGPF: test peptide sequence deduced from positive beads of the encoded library,"Target of positive bead, deduced sequence",[4],anti-β-endorphin
